23 compounds from US3991200A, “Substituted nitroimidazolyl thiadiazoles and oxadiazoles as antibacterial agents and growth promoting compounds” (American Cyanamid Company, priority 1973, dated 1976) can be followed below.

The subject of one assay is Salmonella gallinarum. Kind of assay: controlling fowl typhoid in chicks, medicated feed. It counts as in vivo, Salmonella gallinarum (in sex-linked pullet chicks). The note with it: 10 days. Here is the method:
Groups of five one-day old sex-linked pullet checks are infected orally by gavage with 0.5 ml. of a 10^-^2 dilution of a five-hour Trypticase Soy Broth culture of Salmonella gallinarum, the causative agent of fowl typhoid. Each chick receives approximately 6 × 10^5 viable cells. Medication is administered continuously in the feed, beginning 3 hours before infection and continuing for 10 days, at which time the test is terminated and the number of survivors in each group recorded. Each test utilizes two control groups of chicks, the first group comprising 20 chicks which are infected and untreated, and the second group comprising 10 chicks which are uninfected and untreated. The results of the tests are set forth in the following Table III (in some instances, the results from two or more tests are combined): […]

Assay [1] has as its system Pasteurella multocida. As to the kind of experiment: controlling a Pasteurella multocida infection in mice. It counts as in vivo, Pasteurella multocida (in Swiss Webster female mice). The note with it: 336 h, two weeks post-infection, read-out: Survivors/Total (converted); for responders at 0.5 mg: 0.5 mg./mouse by gavage; for responders at 0.25 mg: 0.25 mg./mouse by gavage; for responders at 1 mg: 1 mg./mouse by gavage.

The test system of assay [2] is Pasteurella multocida. The assay is described as above. Format: in vivo, Pasteurella multocida (in Swiss Webster female mice). The note with it: 336 h, 2 mg./mouse by gavage, two weeks post-infection, read-out: Survivors/Total (converted). Here is the method: Swiss Webster, female mice weighing 22±2 g. were infected by intrapeutoneal injection of 0.5 ml. of a 5 hour Trypticase Soy Broth culture containing 10^7 cfu. of P. multocida. Each mouse was given by gavage at the time of infection 2 mg. of the test drug suspended in 0.2% agar.

Assay [3] is described as follows: enhancing the growth rate and improving feed efficiency, chicks. Format: in vivo. The text has this:
Day-old chicks are divided into groups of ten birds each, five males and five females. These groups are then weighted, placed in pens and given free access to water and feed. […] All feed is weighed such that an accurate determination as to the amount of gain per unit of feed can be ascertained. […]

Where [4] appears, read: 0.025% in feed, 10 chicks tested.
Setting [5] is: 0.006% in feed, 10 chicks tested.
Setting [6] is: 100 PPM in diet, average of two groups.
The mark [7] stands for this setting: 100 PPM in diet, groups of 10 and 9 birds, listed as 2-(2-amino-5-thiadiazolyl)-1-(2-hydroxyethyl)5-nitroimidazole.
[8] abbreviates: 10 ppm in diet, 10 birds, 19 days.
Where [9] appears, read: 10 ppm in diet, 10 birds, 19 days, listed as 1-[5-(1-Methyl-5-nitro-2-imidazolyl)-1,3,4-thiadiazol-2-yl]-4-(2-thiazolyl)piper.
Where [10] appears, read: 10 ppm in diet, 10 birds, listed as 1-[5-(1-Methyl-5-nitro-2-imidazolyl)-1,3,4-thiadiazol-2-yl]-4-(2-thiazolyl)piper.

Values joined by “and” are separate entries in the source; they are usually repeats but may differ in a detail not shown here. Equal values may be shown once.

Regarding `CC(=O)Nc1nnc(-c2ncc([N+](=O)[O-])n2C)o1` [2-(2-Acetamido-5-oxadiazolyl)-1-methyl-5-nitroimidazole], the Survivors is recorded as 8 with Salmonella gallinarum (setting [4]) and 10 with Salmonella gallinarum (0.1% in feed, 10 chicks tested).
`Nc1nnc(-c2ncc([N+](=O)[O-])n2CCO)o1` [2-(2-Amino-5-oxadiazolyl)-1-(2-hydroxyethyl)-5-nitroimidazole]: the responders at 0.5 mg with Pasteurella multocida [1] is 90%. Further, in the assay on Pasteurella multocida [2], the responders at 2 mg was 100%.
Consider `Nc1nnc(-c2ncc([N+](=O)[O-])n2Cc2ccccc2)o1` [2-(2-Amino-5-oxadiazolyl)-1-benzyl-5-nitroimidazole], for which the Survivors in the assay with Salmonella gallinarum (setting [5]) is 1; in the assay with Salmonella gallinarum (setting [4]), 1; with Salmonella gallinarum (0.1% in feed, 10 chicks tested), 9.
Consider `Nc1nnc(-c2ncc([N+](=O)[O-])n2Cc2ccccc2)s1` [2-(2-Amino-5-thiadiazolyl)-1-benzyl-5-nitroimidazole], for which the Survivors came out at 4 in the assay on Salmonella gallinarum (setting [4]) and 10 with Salmonella gallinarum (0.1% in feed, 10 chicks tested). For the same compound, the responders at 2 mg in the assay with Pasteurella multocida [2] was 0%.
The compound `Nc1nnc(-c2ncc([N+](=O)[O-])n2CCO)s1` [2-(2-Amino-5-thiodiazolyl)-1-(2-hydroxyethyl)-5-nitroimidazole] registered a Survivors in the assay on Salmonella gallinarum (setting [4]) of 8. The Survivors in the assay with Salmonella gallinarum (0.1% in feed, 10 chicks tested) is given as 10. In the assay with Pasteurella multocida [1], the responders at 0.25 mg is 76.7%, the responders at 0.5 mg was 90% and the responders at 1 mg is 100%. Moreover, in assay [3] (100 PPM in diet, 19 days), the “% inc. over Controls, F/G” value was 6.5% and the “% inc. over Controls, Gain” value stood at 7.6%. In assay [3] (setting [6]), the “Average Gain 19 Days” value is 297 Grams and the “Average Wt. at 19 days” value was 340 Grams. In addition, the “Average lb. feed/lb. gain” value in assay [3] (100 PPM in diet, average of two groups, 19 days) amounted to 1.525 lb. feed/lb. gain. In addition, the lb.feed/lb. gain in assay [3] (100 PPM in diet, groups of 10 and 9 birds, 19 days, listed as 2-(2-amino-5-thiadiazolyl)-1-(2-hydroxyethyl)5-nitroimidazole) is 1.53 lb. feed/lb. gain and 1.52 lb. feed/lb. gain. In addition, in assay [3] (setting [7]), the “Gain 19 Days” value was 309 Grams and 285 Grams; the “Wt. at 19 days” value was 352.2 Grams and 327.8 Grams.
As to `Cn1c([N+](=O)[O-])cnc1-c1nnc(NC2CCCCC2)s1` [2-(2-Cyclohexylamino-5-thiadiazolyl)-1-5-nitroimidazole], the Survivors with Salmonella gallinarum (0.1% in feed, 10 chicks tested) is given as 8.
For the compound `Cn1c([N+](=O)[O-])cnc1-c1nnc(NC(=O)C(Cl)Cl)s1` [2-(2-Dichloroacetamido-5-thiadiazolyl)-1-methyl-5-nitroimidazole], the Survivors in the assay on Salmonella gallinarum (0.025% in feed, 15 chicks tested) is 3; with Salmonella gallinarum (0.1% in feed, 10 chicks tested), 7.
Regarding `CCNc1nnc(-c2ncc([N+](=O)[O-])n2C)s1` [2-(2-Ethylamino-5-thiadiazolyl)-1-methyl-5-nitroimidazole], the Survivors was 3 in the assay with Salmonella gallinarum (0.006% in feed, 5 chicks tested); 3 in the assay with Salmonella gallinarum (setting [4]); 10 in the assay on Salmonella gallinarum (0.1% in feed, 10 chicks tested). Further, the responders at 2 mg in the assay on Pasteurella multocida [2] is 100%.
Turning to `Cn1c([N+](=O)[O-])cnc1-c1nnc(NCO)s1` [2-(2-Hydroxymethylamino-5-thiadiazolyl)-1-methyl-5-nitroimidazole], the Survivors in the assay with Salmonella gallinarum (setting [5]) came out at 2; with Salmonella gallinarum (setting [4]), 2; in the assay on Salmonella gallinarum (0.1% in feed, 10 chicks tested), 10. In addition, the responders at 2 mg in the assay with Pasteurella multocida [2] is 100%.
`CNc1nnc(-c2ncc([N+](=O)[O-])n2C)o1` [2-(2-Methylamino-5-oxadiazolyl)-1-methyl-5-nitroimidazole]: the Survivors in the assay with Salmonella gallinarum (setting [5]) was determined as 8; in the assay with Salmonella gallinarum (setting [4]), 10; with Salmonella gallinarum (0.1% in feed, 5 chicks tested) it was 5.
As for `Cn1c([N+](=O)[O-])cnc1-c1nnc(NC(=O)CN2CCOCC2)s1` [2-(2-Morpholinoacetamido-5-thiadiazolyl)-1-methyl-5-nitroimidazole], the Survivors in the assay with Salmonella gallinarum (0.025% in feed, 5 chicks tested) is reported as 1; in the assay with Salmonella gallinarum (0.1% in feed, 10 chicks tested), 10. The responders at 2 mg in the assay on Pasteurella multocida [2] is 20%.
In the assay with Salmonella gallinarum (0.1% in feed, 10 chicks tested), `Cn1c([N+](=O)[O-])cnc1-c1nnc(N2CCCCC2)s1` [2-(2-Piperidino-5-thiadiazolyl)-1-methyl-5-nitroimidazole] returned a Survivors of 4. In addition, in the assay with Pasteurella multocida [1], the responders at 0.25 mg was 50%, the responders at 0.5 mg was 40% and the responders at 1 mg was 90%. In assay [3] (10 ppm in diet, 10 birds), the “Gain 19 Days” value amounted to 292.7 Grams and the “Weight at 19 days” value stood at 334.7 Grams. In assay [3] (setting [8]), the “% Increase Over Controls, F/G” value is on record as 2.7%; the “% Increase Over Controls, Gain” value amounted to 1.0%; the lb.feed/lb. gain came out at 1.48 lb.feed/lb. gain.
As for `CCCn1c([N+](=O)[O-])cnc1-c1nnc(N)s1` [2-(2-amino-5-thiadiazolyl)-1-propyl-5-nitroimidazolo], the Survivors in the assay on Salmonella gallinarum (0.1% in feed, 10 chicks tested) is 6.
On to `CN(C)c1nnc(-c2ncc([N+](=O)[O-])n2CCO)o1` [2-(2-dimethylamino-5-oxadiazolyl)-1-(2-hydroxyethyl)-5-nitroimidazole], for which the Survivors in the assay on Salmonella gallinarum (setting [4]) worked out at 2; with Salmonella gallinarum (0.1% in feed, 10 chicks tested), 5.
On to `CNc1nnc(-c2ncc([N+](=O)[O-])n2CCO)o1` [2-(2-methylamino-5-oxadiazolyl)-1-(2-hydroxyethyl)-5-nitroimidazole], for which the Survivors in the assay with Salmonella gallinarum (0.1% in feed, 10 chicks tested) is recorded as 6.
`CCCCCCNc1nnc(-c2ncc([N+](=O)[O-])n2C)s1` [2-(2-n-Hexylamino-5-thiadiazolyl)-1-methyl-5-nitroimidazole] had a Survivors in the assay on Salmonella gallinarum (0.1% in feed, 10 chicks tested) of 6. In the assay with Pasteurella multocida [1], the responders at 0.25 mg is 20%, the responders at 0.5 mg was 80% and the responders at 1 mg was 90%.
In the case of `Cn1c([N+](=O)[O-])cnc1-c1nnc(NC(C)(C)C)s1` [2-(2-t-Butylamino-5-thiadiazolyl)-1-methyl-5-nitroimidazole], the Survivors with Salmonella gallinarum (0.1% in feed, 10 chicks tested) came to 6.
Turning to `CN1CCN(c2nnc(-c3ncc([N+](=O)[O-])n3C)s2)CC1` [2-[2-(4-Methyl-1-piperazinyl)-5-thiadiazolyl)-1-methyl-5-nitroimidazole], in the assay with Salmonella gallinarum (0.1% in feed, 10 chicks tested), the Survivors turned out to be 4.
With `Cn1c([N+](=O)[O-])cnc1-c1nnc(N2CCN(CCO)CC2)s1` [2-[4-(2-Hydroxyethyl)-1-piperazinyl-5-thiadiazolyl]-1-methyl-5-nitroimidazole], the Survivors was 3 in the assay with Salmonella gallinarum (setting [4]) and 7 with Salmonella gallinarum (0.1% in feed, 10 chicks tested). Besides, in the assay on Pasteurella multocida [2], the responders at 2 mg is 100%.
`CN(CCO)c1nnc(-c2ncc([N+](=O)[O-])n2C)s1` [2-{2-N-(2-Hydroxyethyl)methylamino]-5-thiadiazolyl}-1-methyl-5-nitroimidazolo] yielded a Survivors with Salmonella gallinarum (0.1% in feed, 10 chicks tested) of 8. For the same compound, in the assay with Pasteurella multocida [1], the responders at 0.5 mg was 10% and the responders at 1 mg is 30%. For the same compound, the responders at 2 mg in the assay with Pasteurella multocida [2] is 100%.
`Cn1c([N+](=O)[O-])cnc1-c1nnc(N2CCN(c3nccs3)CC2)s1` [2-{2-[4-(2-Thiazolyl)-1-piperazinyl]-5-thiadiazolyl]-1-methyl-5-nitroimidazole]: in assay [3] (setting [9]), the “% Increase Over Controls, F/G” value was 4.1% and 2.0%; the “% Increase Over Controls, Gain” value is 5.0% and 9.0%; the lb.feed/lb. gain is 1.47 lb.feed/lb. gain and 1.50 lb.feed/lb. gain. Moreover, in assay [3] (setting [10]), the “Gain 19 Days” value was 315.5 Grams and 303.2 Grams; the “Weight at 19 days” value was 337.8 Grams and 346.9 Grams. Besides, the responders at 2 mg with Pasteurella multocida [2] was 20%.
As for `CN(C)CCCC1CCN(c2nnc(-c3ncc([N+](=O)[O-])n3C)s2)CC1` [2-{2-[4-(3-Dimethylaminopropyl)-1-piperidino]-5-thiadiazolyl}-1-methyl-5-nitroimidazole], the responders at 0.5 mg in the assay on Pasteurella multocida [1] was 90%. Also, the responders at 2 mg in the assay with Pasteurella multocida [2] was 100%.
`CC(=O)Nc1nnc(-c2ncc([N+](=O)[O-])n2CCO)s1` [N-{5-[1-(2-Hydroxyethyl)-5-nitro-2-imidazolyl]-1,3,4-thiadiazol-2-yl-acetamide]: in assay [3] (10 ppm in diet, 10 birds), the “Gain 19 Days” value is recorded as 305.5 Grams and the “Weight at 19 days” value is given as 345.9 Grams. Also, in assay [3] (setting [8]), the “% Increase Over Controls, F/G” value is 0.6%; the “% Increase Over Controls, Gain” value is 0.7%; the lb.feed/lb. gain stood at 1.57 lb.feed/lb. gain.
